Results reported in ChEMBL document CHEMBL3885881, “DrugMatrix”.

Species: Rattus norvegicus
Test: DrugMatrix - Regimen: Daily Repeat
Assay type: toxicity, organism-based, Sprague-Dawley
Set-up: regimen Daily Repeat, gender Male, age 6-8 weeks
Conditions: in vivo, iv, vehicle 100 % SALINE; for URIC ACID / ALANINE AMINOTRANSFERASE / ALBUMIN / ALKALINE PHOSPHATASE / ASPARTATE AMINOTRANSFERASE / BLOOD UREA NITROGEN / CARBON DIOXIDE / CHLORIDE / CHOLESTEROL / CREATINE PHOSPHOKINASE / CREATININE / GLUCOSE / LACTATE DEHYDROGENASE / LIPASE / PHOSPHORUS / POTASSIUM / SODIUM / TOTAL BILIRUBIN / TOTAL PROTEIN: tissue Plasma; for ABSOLUTE BASOPHIL / ABSOLUTE EOSINOPHIL / ABSOLUTE LYMPHOCYTE / ABSOLUTE MONOCYTE / ABSOLUTE SEGMENTED NEUTROPHIL / BASOPHIL / EOSINOPHIL / ERYTHROCYTE COUNT / HEMATOCRIT / HEMOGLOBIN / LEUKOCYTE COUNT / LYMPHOCYTE / MEAN CORPUSCULAR HEMOGLOBIN / MEAN CORPUSCULAR HEMOGLOBIN CONCENTRATION / MEAN CORPUSCULAR VOLUME / MONOCYTE / NEUTROPHIL / NUCLEATED RED BLOOD CELLS / PLATELET COUNT: tissue Blood
[1] = 2 mg/kg, 120 h, dose level Low, time 5 day
[2] = 44 mg/kg, 72 h, dose level High, time 3 day
[3] = 44 mg/kg, 120 h, dose level High, time 5 day

**Q.** Which results are given for `Cc1ccc(N(CC2=NCCN2)c2cccc(O)c2)cc1` [PHENTOLAMINE]?
**A.** URIC ACID (2 mg/kg, 72 h, dose level Low, time 3 day): 1.4 mg/dL; ABSOLUTE BASOPHIL [1]: 0 CELLS/uL; ABSOLUTE EOSINOPHIL [1]: 0 CELLS/uL; ABSOLUTE LYMPHOCYTE [1]: 13096 CELLS/uL; ABSOLUTE MONOCYTE [1]: 288 CELLS/uL; ABSOLUTE SEGMENTED NEUTROPHIL [1]: 1016 CELLS/uL; BASOPHIL [1]: 0%; EOSINOPHIL [1]: 0%; ERYTHROCYTE COUNT [1]: 6.03 x10E6/uL; HEMATOCRIT [1]: 38.17%; HEMOGLOBIN [1]: 14.2 G/DL; LEUKOCYTE COUNT [1]: 14.4 x10E3/uL; LYMPHOCYTE [1]: 91%; MEAN CORPUSCULAR HEMOGLOBIN [1]: 23.53 pg; MEAN CORPUSCULAR HEMOGLOBIN CONCENTRATION [1]: 37.2 G/DL; MEAN CORPUSCULAR VOLUME [1]: 63.3 fL; MONOCYTE [1]: 2%; NEUTROPHIL [1]: 7%; NUCLEATED RED BLOOD CELLS [1]: 0.67 /100WBC; PLATELET COUNT [1]: 1406 x10E3/uL; ALANINE AMINOTRANSFERASE [1]: 51.67 u/L; ALBUMIN [1]: 4.47 G/DL; ALKALINE PHOSPHATASE [1]: 440 u/L; ASPARTATE AMINOTRANSFERASE [1]: 80 u/L; BLOOD UREA NITROGEN [1]: 16.67 mg/dL; CARBON DIOXIDE [1]: 20.33 mmol/L; CHLORIDE [1]: 102.67 MEQ/L; CHOLESTEROL [1]: 64.33 mg/dL; CREATINE PHOSPHOKINASE [1]: 255.33 u/L; CREATININE [1]: 0.17 mg/dL; GLUCOSE [1]: 170.33 mg/dL; LACTATE DEHYDROGENASE [1]: 112.33 u/L; LIPASE [1]: 10 u/L; PHOSPHORUS [1]: 12.37 mg/dL; POTASSIUM [1]: 6.89 MEQ/L; SODIUM [1]: 145.97 MEQ/L; TOTAL BILIRUBIN [1]: 0.23 mg/dL; URIC ACID [1]: 1.8 mg/dL; ABSOLUTE BASOPHIL [2]: 0 CELLS/uL; ABSOLUTE EOSINOPHIL [2]: 0 CELLS/uL; ABSOLUTE LYMPHOCYTE [2]: 13788 CELLS/uL; ABSOLUTE MONOCYTE [2]: 136.33 CELLS/uL; ABSOLUTE SEGMENTED NEUTROPHIL [2]: 1109 CELLS/uL; BASOPHIL [2]: 0%; EOSINOPHIL [2]: 0%; ERYTHROCYTE COUNT [2]: 5.51 x10E6/uL; HEMATOCRIT [2]: 35.77%; HEMOGLOBIN [2]: 13.13 G/DL; LEUKOCYTE COUNT [2]: 15.03 x10E3/uL; LYMPHOCYTE [2]: 91.33%; MEAN CORPUSCULAR HEMOGLOBIN [2]: 23.9 pg; MEAN CORPUSCULAR HEMOGLOBIN CONCENTRATION [2]: 36.73 G/DL; MEAN CORPUSCULAR VOLUME [2]: 65 fL; MONOCYTE [2]: 1%; NEUTROPHIL [2]: 7.67%; NUCLEATED RED BLOOD CELLS [2]: 0.67 /100WBC; PLATELET COUNT [2]: 1392 x10E3/uL; ALANINE AMINOTRANSFERASE [2]: 54.67 u/L; ALBUMIN [2]: 4.3 G/DL; ALKALINE PHOSPHATASE [2]: 373 u/L; ASPARTATE AMINOTRANSFERASE [2]: 66.67 u/L; BLOOD UREA NITROGEN [2]: 17.33 mg/dL; CARBON DIOXIDE [2]: 20.33 mmol/L; CHLORIDE [2]: 100.67 MEQ/L; CHOLESTEROL [2]: 81.33 mg/dL; CREATINE PHOSPHOKINASE [2]: 188.33 u/L; CREATININE [2]: 0.22 mg/dL; GLUCOSE [2]: 163.67 mg/dL; LACTATE DEHYDROGENASE [2]: 78 u/L; LIPASE [2]: 10.67 u/L; PHOSPHORUS [2]: 10.77 mg/dL; POTASSIUM [2]: 6.6 MEQ/L; SODIUM [2]: 143.67 MEQ/L; TOTAL BILIRUBIN [2]: 0.23 mg/dL; TOTAL PROTEIN [2]: 6.03 G/DL; URIC ACID [2]: 1.53 mg/dL; ABSOLUTE BASOPHIL [3]: 0 CELLS/uL; ABSOLUTE EOSINOPHIL [3]: 0 CELLS/uL; ABSOLUTE LYMPHOCYTE [3]: 13982.67 CELLS/uL; ABSOLUTE MONOCYTE [3]: 349.33 CELLS/uL; ABSOLUTE SEGMENTED NEUTROPHIL [3]: 3068 CELLS/uL; BASOPHIL [3]: 0%; EOSINOPHIL [3]: 0%; ERYTHROCYTE COUNT [3]: 5.76 x10E6/uL; HEMATOCRIT [3]: 36.83%; HEMOGLOBIN [3]: 13.87 G/DL; LEUKOCYTE COUNT [3]: 17.4 x10E3/uL; LYMPHOCYTE [3]: 81.33%; MEAN CORPUSCULAR HEMOGLOBIN [3]: 24.1 pg; MEAN CORPUSCULAR HEMOGLOBIN CONCENTRATION [3]: 37.67 G/DL; MEAN CORPUSCULAR VOLUME [3]: 64.07 fL; MONOCYTE [3]: 2%; NEUTROPHIL [3]: 16.67%; NUCLEATED RED BLOOD CELLS [3]: 0 /100WBC; PLATELET COUNT [3]: 1344.67 x10E3/uL; ALANINE AMINOTRANSFERASE [3]: 54.67 u/L; ALBUMIN [3]: 4.33 G/DL; ALKALINE PHOSPHATASE [3]: 353 u/L; ASPARTATE AMINOTRANSFERASE [3]: 75.67 u/L; BLOOD UREA NITROGEN [3]: 16.33 mg/dL; CARBON DIOXIDE [3]: 29.33 mmol/L; CHLORIDE [3]: 103.33 MEQ/L; CHOLESTEROL [3]: 81 mg/dL; CREATINE PHOSPHOKINASE [3]: 410.67 u/L; CREATININE [3]: 0.19 mg/dL; GLUCOSE [3]: 200.33 mg/dL; LACTATE DEHYDROGENASE [3]: 220.67 u/L; LIPASE [3]: 11 u/L; PHOSPHORUS [3]: 11.43 mg/dL; POTASSIUM [3]: 6.26 MEQ/L; SODIUM [3]: 144.07 MEQ/L; TOTAL BILIRUBIN [3]: 0.17 mg/dL; TOTAL PROTEIN [3]: 6.43 G/DL; URIC ACID [3]: 2.13 mg/dL
